# Several values for one entry are separate records, joined by “and”; a condition that tells them apart may be missing. Equal values may be shown once.
# Test: Patient incidence of adverse events (CTCAE version 4.0)
# Assay type: in vivo
# Description: Each patient was monitored for 21 days for the occurrence of dose-limiting toxicities (DLTs), defined as febrile neutropenia, neutropenic infection, grade 4 neutropenia lasting >7 days, grade ≥ 3 thrombocytopenia lasting >7 days (solid tumors only), grade 3 thrombocytopenia with grade ≥ 2 bleeding (solid tumors only), grade 3 or 4 thrombocytopenia with grade > 1 bleeding (multiple myeloma only), grade 4 thrombocytopenia (solid tumors only), or grade 4 thrombocytopenia lasting >14 days (multiple myeloma only), or as grade ≥ 3 nausea, vomiting, or diarrhea after support; grade 3 fatigue lasting >7 days; any other grade ≥ 3 adverse event (AE); grade ≥ 3 kidney injury (multiple myeloma only), or treatment-related AEs not returning to grade ≤ 1 (solid tumors only) per Common Terminology Criteria for Adverse Events (CTCAE), version 4.0. The MTD was defined as the maximum dose, at which the probability of a DLT was ≤25% in Part 1A and ≤ 33% in Parts 1B and 1C. Treatment continued until disease progression, intolerable toxicity, or withdrawal of consent.
# AEs were recorded for all enrolled patients.
# [1] = dose escalation, 300 mg (n = 4)
# [2] = dose escalation, 360 mg (n = 4)
# [3] = dose escalation, 480 mg (n = 6)
# [4] = dose escalation, Total (n = 39)
smiles,measurement,setting,value
CC(C)[C@@H](CS(=O)(=O)C(C)C)N1C(=O)[C@@](C)(CC(=O)O)C[C@H](c2cccc(Cl)c2)[C@H]1c1ccc(Cl)cc1 [AMG 232],Treatment-related AE: Upper abdominal pain,[1],1 (25) n (%)
same,Treatment-related AE: Vomiting,[1],3 (75) n (%)
same,Treatment-related serious AE: Abdominal pain (grade 2),[1],0 n (%)
same,Treatment-related serious AE: Dehydration (grade 2),[1],1 (25) n (%)
same,Treatment-related serious AE: Diarrhea,[1],1 (25) n (%)
same,"Treatment-related serious AE: Diarrhea, Grade 2",[1],0 n (%)
same,"Treatment-related serious AE: Diarrhea, Grade 3",[1],1 (25) n (%)
same,Treatment-related serious AE: Febrile neutropenia (grade 3),[1],1 (25) n (%)
same,Treatment-related serious AE: Hematemesis (grade 3),[1],0 n (%)
same,Treatment-related serious AE: Nausea (grade 3),[1],0 n (%)
same,Treatment-related serious AE: Neutropenia (grade 4),[1],0 n (%)
same,Treatment-related serious AE: Non-cardiac chest pain (grade 3),[1],0 n (%)
same,Treatment-related serious AE: Thrombocytopenia (grade 4),[1],0 n (%)
same,Treatment-related serious AE: Vomiting,[1],2 (50) n (%)
same,"Treatment-related serious AE: Vomiting, Grade 2",[1],1 (25) n (%)
same,"Treatment-related serious AE: Vomiting, Grade 3",[1],1 (25) n (%)
same,Patients with any treatment-emergent AE,[2],4 (100) n (%)
same,Patients with any treatment-emergent serious AE,[2],0 n (%)
same,Patients with any treatment-related AE,[2],4 (100) n (%)
same,"Patients with any treatment-related AE, Grade 3",[2],3 (75) n (%)
same,"Patients with any treatment-related AE, Grade 4",[2],2 (50) n (%)
same,"Patients with any treatment-related AE, Grade 5",[2],0 n (%)
same,Patients with any treatment-related serious AE,[2],0 n (%)
same,Treatment-related AE: Abdominal pain,[2],1 (25) n (%)
same,Treatment-related AE: Anemia,[2],2 (50) n (%)
same,Treatment-related AE: Asthenia,[2],2 (50) n (%)
same,Treatment-related AE: Decrease appetite,[2],3 (75) n (%)
same,Treatment-related AE: Diarrhea,[2],4 (100) n (%)
same,Treatment-related AE: Dysgeusia,[2],1 (25) n (%)
same,Treatment-related AE: Fatigue,[2],0 n (%)
same,Treatment-related AE: Myalgia,[2],2 (50) n (%)
same,Treatment-related AE: Nausea,[2],4 (100) n (%)
same,Treatment-related AE: Neutropenia,[2],3 (75) n (%)
same,Treatment-related AE: Thrombocytopenia,[2],4 (100) n (%)
same,Treatment-related AE: Upper abdominal pain,[2],1 (25) n (%)
same,Treatment-related AE: Vomiting,[2],3 (75) n (%)
same,Treatment-related serious AE: Abdominal pain (grade 2),[2],0 n (%)
same,Treatment-related serious AE: Dehydration (grade 2),[2],0 n (%)
same,Treatment-related serious AE: Diarrhea,[2],0 n (%)
same,"Treatment-related serious AE: Diarrhea, Grade 2",[2],0 n (%)
same,"Treatment-related serious AE: Diarrhea, Grade 3",[2],0 n (%)
same,Treatment-related serious AE: Febrile neutropenia (grade 3),[2],0 n (%)
same,Treatment-related serious AE: Hematemesis (grade 3),[2],0 n (%)
same,Treatment-related serious AE: Nausea (grade 3),[2],0 n (%)
same,Treatment-related serious AE: Neutropenia (grade 4),[2],0 n (%)
same,Treatment-related serious AE: Non-cardiac chest pain (grade 3),[2],0 n (%)
same,Treatment-related serious AE: Thrombocytopenia (grade 4),[2],0 n (%)
same,Treatment-related serious AE: Vomiting,[2],0 n (%)
same,"Treatment-related serious AE: Vomiting, Grade 2",[2],0 n (%)
same,"Treatment-related serious AE: Vomiting, Grade 3",[2],0 n (%)
same,Patients with any treatment-emergent AE,[3],6 (100) n (%)
same,Patients with any treatment-emergent serious AE,[3],4 (67) n (%)
same,Patients with any treatment-related AE,[3],6 (100) n (%)
same,"Patients with any treatment-related AE, Grade 3",[3],3 (50) n (%)
same,"Patients with any treatment-related AE, Grade 4",[3],3 (50) n (%)
same,"Patients with any treatment-related AE, Grade 5",[3],0 n (%)
same,Patients with any treatment-related serious AE,[3],2 (33) n (%)
same,Treatment-related AE: Abdominal pain,[3],0 n (%)
same,Treatment-related AE: Anemia,[3],2 (33) n (%)
same,Treatment-related AE: Asthenia,[3],0 n (%)
same,Treatment-related AE: Decrease appetite,[3],1 (17) n (%)
same,Treatment-related AE: Diarrhea,[3],6 (100) n (%)
same,Treatment-related AE: Dysgeusia,[3],0 n (%)
same,Treatment-related AE: Fatigue,[3],4 (67) n (%)
same,Treatment-related AE: Myalgia,[3],1 (17) n (%)
same,Treatment-related AE: Nausea,[3],3 (50) n (%)
same,Treatment-related AE: Neutropenia,[3],3 (50) n (%)
same,Treatment-related AE: Thrombocytopenia,[3],5 (83) n (%)
same,Treatment-related AE: Upper abdominal pain,[3],0 n (%)
same,Treatment-related AE: Vomiting,[3],4 (67) n (%)
same,Treatment-related serious AE: Abdominal pain (grade 2),[3],0 n (%)
same,Treatment-related serious AE: Dehydration (grade 2),[3],0 n (%)
same,Treatment-related serious AE: Diarrhea,[3],0 n (%)
same,"Treatment-related serious AE: Diarrhea, Grade 2",[3],0 n (%)
same,"Treatment-related serious AE: Diarrhea, Grade 3",[3],0 n (%)
same,Treatment-related serious AE: Febrile neutropenia (grade 3),[3],0 n (%)
same,Treatment-related serious AE: Hematemesis (grade 3),[3],1 (17) n (%)
same,Treatment-related serious AE: Nausea (grade 3),[3],0 n (%)
same,Treatment-related serious AE: Neutropenia (grade 4),[3],1 (17) n (%)
same,Treatment-related serious AE: Non-cardiac chest pain (grade 3),[3],0 n (%)
same,Treatment-related serious AE: Thrombocytopenia (grade 4),[3],2 (33) n (%)
same,Treatment-related serious AE: Vomiting,[3],0 n (%)
same,"Treatment-related serious AE: Vomiting, Grade 2",[3],0 n (%)
same,"Treatment-related serious AE: Vomiting, Grade 3",[3],0 n (%)
same,Patients with any treatment-emergent AE,[4],37 (95%) n (%) and 37 (95) n (%)
same,Patients with any treatment-emergent serious AE,[4],14 (36%) n (%) and 14 (36) n (%)
same,"Patients with any treatment-related AE, Grade 3",[4],13 (33) n (%)
same,"Patients with any treatment-related AE, Grade 4",[4],8 (21) n (%)
same,"Patients with any treatment-related AE, Grade 5",[4],0 n (%)
same,Treatment-related AE: Abdominal pain,[4],4 (10) n (%)
same,Treatment-related AE: Anemia,[4],5 (13) n (%)
same,Treatment-related AE: Asthenia,[4],4 (10) n (%)
same,Treatment-related AE: Decrease appetite,[4],10 (26) n (%)
same,Treatment-related AE: Diarrhea,[4],25 (64) n (%)
same,Treatment-related AE: Dysgeusia,[4],4 (10) n (%)
same,Treatment-related AE: Fatigue,[4],16 (41) n (%)
same,Treatment-related AE: Myalgia,[4],4 (10) n (%)
same,Treatment-related AE: Nausea,[4],20 (51) n (%)
same,Treatment-related AE: Neutropenia,[4],8 (21) n (%)
same,Treatment-related AE: Thrombocytopenia,[4],14 (36) n (%)
same,Treatment-related AE: Upper abdominal pain,[4],4 (10) n (%)
same,Treatment-related AE: Vomiting,[4],18 (46) n (%)
same,Treatment-related serious AE: Abdominal pain (grade 2),[4],1 (3) n (%)
same,Treatment-related serious AE: Dehydration (grade 2),[4],1 (3) n (%)
same,Treatment-related serious AE: Diarrhea,[4],2 (5) n (%)
same,"Treatment-related serious AE: Diarrhea, Grade 2",[4],1 (3) n (%)
same,"Treatment-related serious AE: Diarrhea, Grade 3",[4],1 (3) n (%)
same,Treatment-related serious AE: Febrile neutropenia (grade 3),[4],1 (3) n (%)
same,Treatment-related serious AE: Hematemesis (grade 3),[4],1 (3) n (%)
same,Treatment-related serious AE: Nausea (grade 3),[4],1 (3) n (%)
same,Treatment-related serious AE: Neutropenia (grade 4),[4],1 (3) n (%)
same,Treatment-related serious AE: Non-cardiac chest pain (grade 3),[4],1 (3) n (%)
same,Treatment-related serious AE: Thrombocytopenia (grade 4),[4],2 (5) n (%)
same,Treatment-related serious AE: Vomiting,[4],3 (8) n (%)
same,"Treatment-related serious AE: Vomiting, Grade 2",[4],1 (3) n (%)
same,"Treatment-related serious AE: Vomiting, Grade 3",[4],2 (5) n (%)
same,Treatment-emergent AE: abdominal pain,"dose escalation, all patients",21%
same,Treatment-emergent AE: anemia,"dose escalation, all patients",26%
same,Treatment-emergent AE: decreased appetite,"dose escalation, all patients",39%
same,Treatment-emergent AE: diarrhea,"dose escalation, all patients",67%
same,Treatment-emergent AE: fatigue,"dose escalation, all patients",41%
same,Treatment-emergent AE: nausea,"dose escalation, all patients",59%
same,Treatment-emergent AE: neutropenia,"dose escalation, all patients",26%
same,Treatment-emergent AE: thrombocytopenia,"dose escalation, all patients",36%
same,Treatment-emergent AE: vomiting,"dose escalation, all patients",51%
same,Treatment-related AE: Diarrhea,"dose escalation, all patients",64%
same,Treatment-related AE: Fatigue,"dose escalation, all patients",41%
same,Treatment-related AE: Nausea,"dose escalation, all patients",51%
same,Treatment-related AE: Neutropenia,"dose escalation, all patients",21%
same,Treatment-related AE: Thrombocytopenia,"dose escalation, all patients",36%
same,Treatment-related AE: Vomiting,"dose escalation, all patients",46%
same,Treatment-related AE: decreased appetite,"dose escalation, all patients",26%
same,Patients discontinuing treatment due to AEs,entire study (107 patients),21 n
